Source: a melting point compilation (Tetko et al.; mined from patent text by program, amines drawn as free bases though some values may be those of a salt)

| Structure (SMILES) | melting point [°C] |
| --- | --- |
| CN1CCCC1CCNC(=O)Cn1c(-c2ccc(Cl)cc2)nc2cccnc21 (stereo unspecified) | 170 to 172 |
| CS(=O)(=O)Nc1ccc(C#CCCN2CC=C(c3ccccc3)CC2)nc1 | 138 to 139 |
| CC1C(=O)Oc2cc(N3CCCCC3)c(Cl)cc21 (stereo unspecified) | 108 to 111 |
| NCC1Cc2cc(-c3ccccc3)cc(-c3cc(Cl)ccc3Cl)c2O1 (stereo unspecified) | 159 to 162 |
| CC(=O)c1ccc(C2C(C(=O)c3ccc(C(C)C)cc3)=C(O)C(=O)N2c2ccc(C)nn2)cc1 (stereo unspecified) | 259 to 266 |
| COc1ccnc(CSc2nc3cc4c(cc3[nH]2)OCO4)c1C | 215 to 220 |
| CSc1nn(C)c(=O)n1-c1ccccc1Oc1ccccc1 | 129 to 130 |
| Fc1ccccc1C1=CCC(=S)Nc2ccc(Cl)cc21 | 179 to 181 |
| CN(C)C=CC=C(C#N)C(=O)N(C)C | 149 to 150 |
| Cc1cccc(Nn2cnc(C)c2-c2ccccc2)c1 | 159 |
| Cc1cc(C2(C(F)(F)F)CC(c3ccc(F)cc3)=NO2)ccc1NC(=O)OC(C)(C)C (stereo unspecified) | 149 to 150 |
| Cc1nc(C(C)(C)C)c[nH]1 | 155 to 156 |
| O=C(c1ccncc1)c1cc(-c2ccncc2)c(N2CCOCC2)s1 | 124 |
| O=S(=O)(c1ccccc1)c1c(-c2ccc(Cl)cc2)[nH]c(C(F)(F)F)c1Cl | 158 to 161 |
| O=c1[nH]c2cc(F)c(NCC3CCc4ccccc4C3)cc2o1 (stereo unspecified) | 177 to 178 |
| O=C(O)C1CCN(Cc2cc(Br)cc3[nH]c(=O)c(=O)[nH]c23)CC1 | > 300 |
| N#CCCN(CCC#N)CC(=O)O | 73 |
| COc1cc2c(cc1Nc1ncc(Cl)c(Nc3ccc(N4CCOCC4)cc3OC)n1)CCN(CCNC(C)=O)CC2 | 50 to 65 |
| CC(=O)N(C(C)=O)C1=C(N2CCN(c3ccc(F)cc3)CC2)C(=O)c2ccccc2C1=O | 149 to 150 |

| Structure (SMILES) | melting point [°C] |
| --- | --- |
| CCN1C(=O)CCCc2cc(Nc3ncc(Cl)c(N[C@@H]4CCCC[C@H]4NS(C)(=O)=O)n3)c(OC)cc21 | 120 to 128 |
| CC(=O)OC1CSC(Sc2ccc(C(C)=O)cc2)C(OC(C)=O)C1OC(C)=O (stereo unspecified) | 122 |
| Cc1c(N2CCOCC2)c(F)cc2c(=O)c(C(=O)O)cn(C3CC3)c12 | 228 |
| OCCCNc1cc(-c2ccnc(Nc3cccc(OC(F)(F)C(F)F)c3)n2)ccn1 | 141 to 145 |
| O=C(c1ccccc1)N1CCc2[nH]c3cccc(-c4ccccc4OC4CCCC4)c3c2CC1 | 187 to 189 |
| COC1=CC(=O)C2=C(C1=O)C1CCC2C1 (stereo unspecified) | 106 to 108 |
| CC1NC(=S)NN=C1c1ccccc1 (stereo unspecified) | 213 to 214 |
| FC(F)(F)c1ccc(-c2ccc3ccn(Cc4ccccc4)c3c2)cc1 | 83 to 85 |
| Cc1cccc(CC(NC(=O)C(c2ccccc2)c2ccccc2)C(=O)NC(C#N)COCc2cccc(C(=O)O)c2)c1 (stereo unspecified) | 160 to 162 |
| O=C(CC1CCCCCC1)c1cn(CCO)c2cccc(Cl)c12 | 113 to 119 |
| c1ccc(COc2ccc(-c3ccc(OCCCN4CCCCC4)cc3)nn2)cc1 | 138 |
| CCCCCCCCCCC#Cc1csc(CC(N)CO)c1 (stereo unspecified) | 85 to 135 |
| O=C1NC(=O)C(Cc2ccc(OCCn3nc(-c4ccccc4)c4ccccc4c3=O)cc2)S1 (stereo unspecified) | 198 |
| Clc1ccc2c(c1)C=C(Cn1ccnc1)c1ccsc1S2 | 154 to 156 |
| OCC1OC(n2c(NC3CC3)nc3cc(Cl)c(Cl)cc32)C(O)C1O (stereo unspecified) | 184 to 186 |
| O=c1ccn(CCOCCO)c(C(O)c2ccccc2)c1OCc1ccccc1 (stereo unspecified) | 157 to 159 |
| CNC(=O)N(C)c1nnc(SCC(=O)OC(C)(C)C)s1 | 174 |
| CNC1C(O)CC2C3CCC4CC(O)CCC4(C)C3CCC21C (stereo unspecified) | 241 to 253 |
| CCCCOC(=O)CCCCSc1cc(C)nc(N)n1 | 45 to 47 |

| Structure (SMILES) | melting point [°C] |
| --- | --- |
| Cc1nccnc1C(=O)Nc1ccc(C(C(F)(F)F)C(F)(F)F)c(CC(C)C)c1 | 133 to 134 |
| COC1CC(OC)(OC)C(=O)N1 (stereo unspecified) | 86 |
| O=C(O)c1cn(CCc2ccc(C(F)(F)F)cc2)c2cc(C3CC3)nn2c1=O | 225 to 230 |
| CCOC(=O)Cn1cc2c(n1)CCN(C(=O)OC(C)(C)C)C2 | 90 to 91 |
| CC1CC(n2ccc(-c3ccc(F)cc3)c2-c2ccncc2)CCN1 (stereo unspecified) | 173 to 175 |
| Nc1cccc(Oc2cccc3cccnc23)c1 | 98 to 100 |
| CC1NN2C=CC=NC2C1C#N (stereo unspecified) | 170 to 172 |
| CC(=O)OCC(=O)C1(O)C(C)CC2C3CCC4=CC(=O)CCC4(C)C3=CCC21C (stereo unspecified) | 197 to 201 |
| O=C(CCN1CCN(c2ccnc3ccccc23)CC1)c1csc2ccccc12 | 134 to 136 |
| NC(=O)CN1CC2CCCCCC2C1=O (stereo unspecified) | 145 to 147 |
| CCN1CCN(C(C(=O)O)c2ccc(Nc3nc(-c4cccc(NC(=O)c5cc6c(s5)CCCCC6)c4C)cn(C)c3=O)cc2)CC1 (stereo unspecified) | 168 to 170 |
| CCCc1c(O)c(C(C)=O)cc2c1N=C(C(=O)OC)CC2=O | 169 to 170 |
| CC1CC(=O)c2c(SCc3ncn(C)n3)ccc(-c3nccs3)c2C1 (stereo unspecified) | 130 to 131 |
| CC(C)(C)OC(=O)NC(NC(=O)OC(C)(C)C)Nc1ccc(CCc2csc(NC(=O)c3ccccc3)n2)cc1 | 143 to 144 |
| O=C(NC1=NCCS1)c1c(C(F)(F)F)nc(-c2ccccc2)c(-c2ccccc2)c1O | 280 |
| Fc1ccc(N2CCN(CCCc3[nH]nc4c3CSCC4)CC2)cc1 | 110 to 111 |
| Cc1nc2ccnn2c(=O)[nH]1 | 268 |
| CC(=O)c1c(C)c(NC(=O)NC(C)(C)C)c(C)c2c1OCC2c1ccc(C(C)C)cc1 (stereo unspecified) | 207 to 208 |
| COc1cc(Nc2c(C#N)cnc3sc(C)cc23)c(Cl)cc1Cl | 179 to 181 |

The remaining lines, values ahead:

| melting point [°C] | Structure (SMILES) |
| --- | --- |
| 88.5 to 89.5 | CCC(Cc1ccc(OC)c(OCCc2ccccc2)c1)NC(=O)OC(C)(C)C (stereo unspecified) |
| 162 to 165 | CC(=O)Nc1ccc(O)c(C(=O)C=Cc2ccccc2)c1 |
| 140 to 142 | O=C(c1cc(O)c2occc2c1)c1ccco1 |
| 194 to 195 | CS(=O)CC(=N)c1ccccc1O (stereo unspecified) |
| 181 to 186 | CC(C)(C)c1ccc2c3c(c(=O)oc2c1)CNCC3 |
| 240 | COC(=O)C(=O)Nc1c(-c2ccccc2)c(=O)[nH]c2cc(Cl)ccc12 |
| 161 to 163 | CCOC(=O)c1ccc2cc(Oc3cccc([N+](=O)[O-])c3)ccn2c1=O |
| 114 to 116 | Cc1c(CNCCc2cc3cccc(F)c3n2C)ncn1S(=O)(=O)N(C)C |
| 100 to 103 | [N-]=[N+]=NC(=O)c1ccc2c(c1)C(=O)OC2=O |
| 171 to 173 | COc1cc(C(=O)NCCC2Cc3c(C)c(OCc4ccccc4)c(C)c(C)c3O2)cc(OC)c1OC (racemic) |
| 83 to 83.5 | CC(N)c1ccccc1O (single isomer, unassigned; (+)) |
| 170 to 171 | Cc1cc(CCCCCOc2ccc(C3=NCCO3)cc2C(=O)O)on1 |
| 56 to 58 | COC(=O)CN(N)c1cc(C)cc(C)c1 |
| 188 to 190 | CC1=Cc2ccc(Cl)cc2C(c2ccc([N+](=O)[O-])c(C)c2)=NN1C(=O)Oc1ccccc1 |
| 111 to 113 | COC(=O)CCC(=O)Nc1ccc(C(=O)NNC(=O)OC(C)(C)C)cc1 |
| 91 to 94 | CC(NC(=O)c1cccc(C2(C)C(=O)Nc3cc(Cl)cc(Cl)c3C2=O)c1)c1ccccc1 (stereo unspecified) |
| 209 to 211 | O=c1[nH]cnc2ccc(C(F)(F)F)cc12 |
| 224 to 226 | CN1CC(=O)N2[C@H](c3ccc(O)c(O)c3)c3[nH]c4ccccc4c3C[C@@H]2C1=O |
| 57 | CCCCCCCCCCCCCCCCCC(=O)Oc1cccc(C(=O)OCC)c1 |
| 88 | C=CC=CN(C(=O)CCl)c1c(C)cccc1C |
| 241 | CCOC(=O)c1ccc2c(C=C[N+](=O)[O-])c[nH]c2c1 |
| 64 to 65 | CCOC(=O)c1cnoc1-c1ccc(F)c(F)c1 |

| melting point [°C] | Structure (SMILES) |
| --- | --- |
| 97 to 98 | Cc1c(C#N)ncn1-c1cccc(Oc2ccccc2)c1 |
| 61 to 62 | CCCCCc1c(OCc2ccccc2)ccc(C(C)=O)c1O |
| 246 to 248 | O=C(NC1C(=O)Nc2ccccc2SC1c1ccccc1)OCc1ccccc1 (stereo unspecified) |
| 137 to 138 | CCOC(=O)C(=NO)c1cccnc1 |
| 89 to 91 | Nc1cc2c(cc1[N+](=O)[O-])CC(CCO)C2 (stereo unspecified) |
| 146 to 148 | COC(=O)COc1cccc2c(CCBr)c(C)oc12 |
| 170 to 171 | COCCc1nc2c(N)nc3cc(OCc4ccccc4)ccc3c2n1CCCCNC(N)=O |
| 181 to 182 | CC(=O)c1ccc(S(=O)(=O)Nc2ccc(Cl)cn2)cc1 |
| 100 to 103 | CC(C)(C)OC(=O)NCC(=O)Oc1cc(Cl)c(Cl)cc1Cl |
| 152 to 153 | C[C@@H](O)[C@H](NC(=O)c1ccc(F)c(Br)c1)C(=O)NO |
| 202 to 204 | NC(=O)c1ncoc1-c1cccc(O)c1 |
| 159 to 160 | COCc1c(C(=O)c2ccccc2)ncc2[nH]c3ccc(Oc4nccc5ccccc45)cc3c12 |
| 214 to 217 | O=C(/C=C/c1ccc(F)c(F)c1)N1CCN(C(=O)c2cc(C(F)(F)F)cc(C(F)(F)F)c2)[C@H](Cc2c[nH]c3ccccc23)C1 |
| 213 to 215 | CCCCOc1ccc(Cc2cc3c(cn2)COC3)cc1 |
| 118 to 122 | COc1ccc2c(c1)c(CC(=O)OCC(=O)N(C)CCO[N+](=O)[O-])c(C)n2C(=O)c1ccc(Cl)cc1 |
| 170 to 172 | CCCN(Cc1ccc(-c2ccccc2-c2nc(=S)o[nH]2)cc1)c1nc(C)ncc1C(=O)OCC |
| 183 to 185 | CC1(C)C(=O)Oc2ccc3cc([N+](=O)[O-])c(Cn4cncn4)cc3c21 |
| 190 to 192 | O=C(O)c1ccccc1N1C(=O)c2cccc([N+](=O)[O-])c2C1=O |
| 168 | CCOC(=O)c1c(Cl)ccc(C(=O)O)c1Cl |
| 146 to 148 | CNS(=O)(=O)CCc1ccc2[nH]cc(CCN=Cc3ccccc3)c2c1 |
| 141 to 142 | O=[N+]([O-])c1c(Cl)cccc1CS(=O)(=O)c1ccccc1 |
| 175 | Cc1ccc(C#Cc2ccc(NC(=O)OC(C)(C)C)c(N)c2)cc1 |
